Legend:
[1] = pH stability of Glyco-BABS; format: physicochemical; settings: 5 μM, up to 72 h, pH 2 to 10
GBA2 = target: T1, GBA2 (Homo sapiens, UniProt Q9HCG7); assay: In vitro kinetic assay with GBA2; format: biochemical; settings: GBA enzymes at 50 nM
T1 sequence (Q9HCG7 1-927): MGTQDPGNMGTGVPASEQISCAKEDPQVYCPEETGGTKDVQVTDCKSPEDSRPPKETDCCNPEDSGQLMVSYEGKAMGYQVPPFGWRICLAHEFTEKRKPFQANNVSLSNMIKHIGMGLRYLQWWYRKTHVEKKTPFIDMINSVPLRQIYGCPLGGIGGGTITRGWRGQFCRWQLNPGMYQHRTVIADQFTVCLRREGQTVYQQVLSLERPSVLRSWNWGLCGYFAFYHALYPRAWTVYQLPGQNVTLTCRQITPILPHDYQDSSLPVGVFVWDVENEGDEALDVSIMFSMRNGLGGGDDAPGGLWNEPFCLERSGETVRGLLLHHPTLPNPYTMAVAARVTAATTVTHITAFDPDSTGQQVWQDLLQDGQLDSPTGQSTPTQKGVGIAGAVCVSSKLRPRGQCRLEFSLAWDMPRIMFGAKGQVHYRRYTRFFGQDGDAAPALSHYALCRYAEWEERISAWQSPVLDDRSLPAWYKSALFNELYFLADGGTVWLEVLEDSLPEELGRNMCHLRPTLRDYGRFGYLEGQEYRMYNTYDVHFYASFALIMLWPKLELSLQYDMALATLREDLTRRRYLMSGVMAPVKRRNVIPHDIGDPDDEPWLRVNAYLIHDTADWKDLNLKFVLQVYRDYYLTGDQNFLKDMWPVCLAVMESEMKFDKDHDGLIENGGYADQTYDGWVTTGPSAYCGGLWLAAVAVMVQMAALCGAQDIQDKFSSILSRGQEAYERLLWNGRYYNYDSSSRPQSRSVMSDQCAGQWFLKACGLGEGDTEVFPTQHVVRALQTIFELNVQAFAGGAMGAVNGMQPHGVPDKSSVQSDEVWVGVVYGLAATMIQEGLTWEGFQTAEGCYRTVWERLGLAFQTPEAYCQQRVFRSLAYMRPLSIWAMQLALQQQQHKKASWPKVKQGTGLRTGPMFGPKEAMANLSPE

GBA3 = target: T2, GBA3 (Homo sapiens, UniProt Q9H227); assay: In vitro kinetic assay with GBA3; format: biochemical; settings: GBA enzymes at 50 nM
T2 construct: purchased R&D Systems
T2 sequence (Q9H227 1-469): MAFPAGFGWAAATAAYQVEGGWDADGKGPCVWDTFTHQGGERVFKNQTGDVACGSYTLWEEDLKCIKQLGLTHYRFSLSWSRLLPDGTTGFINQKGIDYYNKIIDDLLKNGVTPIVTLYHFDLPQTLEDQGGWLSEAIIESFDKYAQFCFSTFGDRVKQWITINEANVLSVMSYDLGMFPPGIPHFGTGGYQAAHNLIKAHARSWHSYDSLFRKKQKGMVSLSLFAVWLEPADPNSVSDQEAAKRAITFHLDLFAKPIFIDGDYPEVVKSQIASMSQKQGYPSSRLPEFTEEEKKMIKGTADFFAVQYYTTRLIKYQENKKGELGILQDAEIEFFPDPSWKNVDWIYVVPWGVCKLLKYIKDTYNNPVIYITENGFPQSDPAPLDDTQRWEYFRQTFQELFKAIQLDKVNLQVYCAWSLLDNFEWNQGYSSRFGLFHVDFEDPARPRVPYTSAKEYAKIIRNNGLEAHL
Protocol: (§1) For some experiments, fluorescence kinetic assays were performed using a Varian Cary Eclipse Spectrophotometer set for 335/493 nm excitation/emission wavelengths. Slits were set at 10 nm and the detector was set on Medium voltage. Enzymatic reactions with human OGA were carried out in PBS at 37° C. and were started by addition of hOGA (WT, Full-length, expressed in E. coli. as previously described) in a total volume of 160 μL (Starna sub-micro Fluorometer cuvette). For measurements of rates using different concentrations of substrates, a hOGA concentration of 100 nM was used. For hOGA titration, 25 μM of Glyco-BABS were added to various concentration of hOGA. […] EDANS standard curve was established using endpoint fluorescence measurements of serial dilutions of EDANS in the relevant buffer using the same instrument parameters. Inner-Filter effect measurements were carried out in cuvette by measuring fluorescence of several concentrations of EDANS in presence of various concentrations of GlcNAc-BABS. Kinetics with Glc-BABS and GBA enzymes (GBA1 and GBA3 purchased from R&D Systems), kinetics with GALC (R&D systems) and Gal-BABS, pH stability, quenching efficiency, some inner-filter effect experiments and lysates experiments were carried out using a Molecular Devices SpectraMax i3× plate reader. […]

GBA1 = target: T3, GBA1 (Homo sapiens, UniProt P04062); assay: In vitro kinetic assay with GBA1; format: biochemical; design: purchased R&D Systems; settings: GBA enzymes at 50 nM
T3 sequence (P04062 40-536): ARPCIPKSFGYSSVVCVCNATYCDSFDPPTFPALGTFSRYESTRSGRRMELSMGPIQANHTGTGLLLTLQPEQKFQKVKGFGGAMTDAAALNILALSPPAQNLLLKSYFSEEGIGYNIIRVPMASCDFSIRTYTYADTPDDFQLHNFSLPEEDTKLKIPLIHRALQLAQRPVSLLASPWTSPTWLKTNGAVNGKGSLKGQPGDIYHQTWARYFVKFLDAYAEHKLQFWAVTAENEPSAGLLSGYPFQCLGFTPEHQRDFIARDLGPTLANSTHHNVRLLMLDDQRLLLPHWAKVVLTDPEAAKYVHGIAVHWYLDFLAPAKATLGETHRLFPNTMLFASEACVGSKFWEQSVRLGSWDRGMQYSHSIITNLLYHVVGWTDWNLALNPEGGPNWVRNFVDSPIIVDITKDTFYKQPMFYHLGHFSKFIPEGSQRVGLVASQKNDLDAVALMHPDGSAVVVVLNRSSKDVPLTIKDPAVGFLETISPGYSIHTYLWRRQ
Protocol: as §1

- pH stability (increase of fluorescence) [1]: no significant increase of fluorescence
- turnover by GBA2 (GBA2): not turned over
- turnover by GBA3 (GBA3): not turned over
- turnover by GBA1 (GBA1): not turned over
Compound: CN(C)c1ccc(/N=N/c2ccc(C(=O)NCc3cn(CCOCCO[C@H](O[C@@H]4O[C@H](CO)[C@@H](O)[C@H](O)[C@H]4O)[C@@](C)(O)C(=O)NCCNc4cccc5c(S(=O)(=O)O)cccc45)nn3)cc2)cc1 [Compound 6, 5-((2-((2R,3R)-3-(2-(2-(4-((4-((E)-(4-(dimethylamino)phenyl)diazenyl)benzamido)methyl)-1H-1,2,3-triazol-1-yl)ethoxy)ethoxy)-2-hydroxy-2-methyl-3-(((2S,3R,4S,5S,6R)-3,4,5-trihydroxy-6-(hydroxymethyl)tetrahydro-2H-pyran-2-yl)oxy)propanamido)ethyl)amino)naphthalene-1-sulfonic Acid]
